pKi: −log10 of the molar value. Positions of bridges follow the written chain, without caps; N, C: chain ends. Non-standard residues stand in square brackets, D forms with d. Residues, ends and D or L forms follow the SMILES beside them. Hyp = O=C(O)[C@@H]1C[C@@H](O)CN1; R8 = C=CCCCCCC[C@@](C)(N)C(=O)O; hLeu = CC(C)CC[C@H](N)C(=O)O; S5 = C=CCCC[C@](C)(N)C(=O)O; AEA = NCCOCC(=O)O Some results are limits rather than exact numbers.

One data set can be described thus: Pharmacokinetic study. It counts as in vivo. The note with it: mouse, iv, male ICR mice, 1.8 mg/kg single i.v. tail vein, plasma, UPLC-ESI-QqQ-MS, n = 5. How it is done: The peptides (1.8 mg/kg) were individually dosed in mice intravenously via tail vein injection and the blood samples were collected from the orbital venous plexus at 0, 0.5, 1, 2, 4, 6, 10, 24, and 48 h. All blood samples were centrifuged at 3000 rpm for 10 min, and the obtained plasma samples were immediately frozen at -80 °C until use. The standard curve was established as follows: Stock solutions of PMI-HIF1-1 and SPMI-HIF2-1 dissolved in acetonitrile were spiked into control plasma at final concentrations of 4000, 2000, 1000, 500, 250, 125, 62.5, 31.25, 15.625, 7.8125, 3.90625, 1.953125, and 0.9765625 ng/ml. […] Plasma samples (30 μL) were treated with 90 μL acetonitrile for protein precipitation. Then all samples were vortexed for 2 min and centrifuged for 15 min at 13000 rpm and 4°C. The supernatants were analyzed by ultraperformance liquid chromatography-electrospray ionization-tandem triple quadrupole mass spectrometry (UPLC-ESI-QqQ-MS, Shimadzu 8040). The system was equipped with an XBridge BEH C18 column (2.5 μm, 2.1×100 mm; Waters, Milford, MA, USA). The column temperature was set at 35°C. The injection volume was 4 μl. […] The plasma concentration at each time point was calculated from the extracted peak area of the same mass peaks of each peptide using the corresponding standard curve.

The test system of data set [1] is HCT-116 orthotopic (rectal mucosa) xenograft. Kind of data set: Orthotopic CRC xenograft model. It counts as in vivo, BALB/c nude mice. As to the method: Four-week-old male BALB/c nude mice (15-20 g) were used to establish subcutaneous and orthotopic xenograft models. A total of 5 × 10^6 HCT-116 cells were subcutaneously inoculated into the right flanks of the mice. Tumor volume was calculated using the following formula: V = (L × W^2)/2, where L is the length and W is the width of the tumor nodules measured with a vernier caliper. […] Drugs were intravenously injected into the mice every 2 days for 2 weeks. In addition, the model of orthotopic CRC xenografts was established. Briefly, mice were anesthetized after fasting for 12 h. Subsequently, the distal anal and rectal mucosa were exposed, and transanal injection of HCT-116 cells (5 × 10^6) was performed using a 30 G sterile needle. The injection was given directly into the rectal mucosa. Tumor growth was investigated, and once the tumors reached ~0.5 cm in size, the mice were randomly divided into two groups. The mice were treated every other day for 2 weeks with tail vein injections of either vehicle (saline) or sPMI-HIF2-1 (2 mg/kg). Body weight was measured before saline or drug injection. All mice were euthanized on day 14 following drug treatment, and the tumors were isolated, photographed, weighed, and measured.

The test system of another data set is HCT116 p53^-/- cells. In words: Cell viability assay (CCK-8). The class given is cell-based, human. The conditions noted are these: CCK-8, 72 h incubation, absorbance 450 nm; read-out: IC50 (μM) HCT116 p53^-/-. As to the method: (§1) The human colon carcinoma cell line HCT116 p53^+/+ was obtained from the Cell Bank of the Chinese Academy of Sciences (Shanghai, China). HCT116 p53^-/- cells were generously provided by Prof. Vogelstein of Johns Hopkins University. Both cell lines were cultured in McCoy's 5A medium (Gibco, USA) containing 10% FBS, 100 units/ml penicillin, and 100 μg/ml streptomycin at 37 °C in a humidified incubator containing 5% CO2. Cell viability was measured using a Cell Counting Kit-8 (CCK-8) (Dojindo, Kumamoto, Japan) according to the manufacturer's instructions. In brief, the cells (5 × 10^3 cells/well in […] medium) were cultured for 24 h in 96-well microplates in a humidified 5% CO2 incubator at 37 °C and then treated with varying concentrations of compounds or 0.1% DMSO vehicle control.

Another data set has as its system HCT116 p53^+/+ cells. In words: Cell viability assay (CCK-8). It counts as cell-based, human. As to the method:
as §1

In another data set the target is T1, ^24-108MDMX (Homo sapiens, UniProt O15151).
T1 construct: ^24-108MDMX, and a fluorescently tagged p53-derived peptide
T1 sequence (O15151 24-108): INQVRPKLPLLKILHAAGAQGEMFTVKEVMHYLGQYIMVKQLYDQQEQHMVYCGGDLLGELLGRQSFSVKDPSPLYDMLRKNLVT
In words: FP-based competitive binding assay. The note with it: MDMX 40 nM, fluorescently tagged p53 peptide 20 nM, PBS pH 7.4, 30 min room temperature; mean of three independent measurements. As to the method: (§2) An FP-based competitive or binding assay was established using ^25-109MDM2, ^24-108MDMX, and a fluorescently tagged p53-derived peptide as previously described. [34]-[36] For dose-dependent competitive binding experiments, MDM2 or MDMX protein (40 nM) was first incubated with TAMRA-p53 peptide (20 nM) in PBS (pH 7.4) on a Costar 96-well plate, to which a serially diluted solution of test peptide was added to a final volume of 125 μL. After 30 min of incubation at room temperature, the FP values were measured at λex = 530 nm and λem = 580 nm on a Tecan Infinite M1000 plate reader. For binding experiments, FITC-labeled SPMI-HIF2-1 (20 nM) was incubated with different concentrations of MDM2, MDMX, and VHL proteins. Curve fitting was performed using GraphPad Prism software, and Ki values were calculated as described previously. Three replicates and three independent experiments were performed.

A further data set has as its target T2, ^25-109MDM2 (Homo sapiens, UniProt Q00987).
T2 construct: established using ^25-109MDM2, ^24-108MDMX
Kind of data set: FP-based competitive binding assay. The conditions noted are these: MDM2 40 nM, fluorescently tagged p53 peptide 20 nM, PBS pH 7.4, 30 min room temperature; mean of three independent measurements. How it is done: as §2

For a further data set, the system named is α-Chymotrypsin. Kind of data set: Proteolytic stability against chymotrypsin. It counts as in vitro ADME. The note with it: chymotrypsin 5 ng/μl (10 μl) added to 1 ml of 1 mM peptide, PBS 50 mM pH 7.4, 2 mM CaCl2, 25°C, HPLC, 90 min, read-out: intact peptide still observed after proteolytic digestion for 90 min. As to the method: Peptides were dissolved in PBS (50 mM, pH = 7.4) to a final concentration of 1 mM. α-Chymotrypsin was dissolved in PBS (50 mM, containing 2 mM of CaCl2, pH = 7.4) to a final concentration of 5 ng/μl. Then the peptide solutions (1 ml) were incubated with […] (10 μl) at 25°C. Samples were taken at 0, 5, 30, 60, 90, and 120 min and reactions were quenched with 20 μL of hydrochloric acid (1 M). The solution of the trypsin peptide fragments was monitored by HPLC at different time points to determine the fraction of protease degradation.

What is called Cmax is the maximum level reached in the sampled fluid or tissue. By AUC(0-inf) is commonly meant the area under the concentration-time curve extrapolated to infinity. The term MRT denotes a mean duration of stay, worked out from the concentration-time curve. For orientation: pKi means −log10 of the Ki, conventionally taken in molar units. High values mean a small Ki, low ones a large Ki. In turn, `CC(=O)N[C@H](C(=O)N[C@@H](CO)C(=O)N[C@@H](Cc1ccccc1)C(=O)N[C@]1(C)CCCCCCC=CCCC[C@@](C)(C(=O)NCCOCC(=O)N[C@@H](CC(C)C)C(=O)N[C@@H](C)C(=O)N2C[C@H](O)C[C@H]2C(=O)N[C@@H](Cc2ccc(O)cc2)C(=O)N[C@@H](CCC(C)C)C(=O)N2CCC[C@H]2C(N)=O)NC(=O)[C@H](CC(C)C)NC(=O)[C@H](CC(C)C)NC(=O)[C@H](C)NC(=O)[C@H](Cc2c[nH]c3ccccc23)NC(=O)[C@H](Cc2ccc(O)cc2)NC(=O)[C@H](CCC(=O)O)NC1=O)[C@@H](C)O` [SPMI-HIF2-1] (Ac-TSF[R8]EYWALL[S5][AEA]LA[Hyp]Y[hLeu]P-NH2; staple 4-11) registered a Cmax in the data set “Pharmacokinetic study” (mean) of 17700 ng/mL. Moreover, the AUC(0-inf) in “Pharmacokinetic study” came out at 43900 ng·h/mL. In “Pharmacokinetic study”, the MRT was 11.5 h. Moreover, the half-life in “Pharmacokinetic study” (read-out: half-life (t1/2) (converted)) is 9.3 h. Moreover, the body weight result in data set [1] (2 mg/kg i.v. every 2 days until the 13th day, compared to saline-treated controls) is listed as “no obvious change in body weight”. In addition, the “reduction in tumor weight compared to the control group” value in data set [1] (2 mg/kg i.v. tail vein every 2 days until the 13th day, n = 5 mice/group) turned out to be 77%. Also, the IC50 was above 100 µM with HCT116 p53^-/- cells and 6.7 µM in the data set with HCT116 p53^+/+ cells (CCK-8, 72 h incubation, absorbance 450 nm, read-out: IC50 (μM) HCT116 p53^+/+). In the data set with HCT116 p53^+/+ cells (CCK-8, 72 h), the “enhancement of IC50 against HCT116 p53^+/+ compared with SPMI2” value was around 5 fold. Further, the pKi is 6.28 on ^24-108MDMX and 6.46 at ^25-109MDM2. In the data set on α-Chymotrypsin, the remaining at 1.5 h, 1 mM is above 60%.

(Values after article PMC9516243, “Design of stapled peptide-based PROTACs for MDM2/MDMX atypical degradation and tumor suppression” (Theranostics, 2022).)
